According to patent publication US11566007B2, “Ras inhibitors” (Revolution Medicines, Inc., priority 2019, dated 2023):

Legend:
[1] = target: KRAS G12S (Homo sapiens (Human), UniProt P01116+P62937, G12S); test: Ras-Raf (BRAF RBD) disruption / FRET / MOA assay, KRAS G12S; assay type: biochemical; settings: Ras-Raf disruption/FRET/MOA assay; class symbols; read-out: KRAS G12S FRET data IC50
Procedure, shortened: (§1)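 TR-FRET read-out: a drop in ratio relative to DMSO wells marks disruption of the Ras:RAF complex, reported as IC50. Compounds (3-fold series, 10 points, top 30 μM final) incubated 3 h at 25° C before Eu-anti-His 10 nM and APC-anti-GST 50 nM, 1.5 h more.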

[2] = target: K-Ras G13C (Homo sapiens (Human), UniProt P01116+P62937, G13C); test: Ras-Raf (BRAF RBD) disruption / FRET / MOA assay, KRAS G13C; assay type: biochemical; settings: KRAS G13C; Ras-Raf disruption/FRET/MOA assay; read-out: IC50* KRAS G13C FRET data
Procedure, shortened: as §1

[3] = target: KRAS G12D (Homo sapiens (Human), UniProt P01116+P62937, G12D); test: Ras-Raf (BRAF RBD) disruption / FRET / MOA assay, KRAS G12D; assay type: biochemical; settings: Ras-Raf disruption/FRET/MOA assay; class symbols; read-out: KRAS G12D FRET data IC50
Procedure, shortened: as §1

[4] = target: K-Ras G12C (Homo sapiens (Human), UniProt P01116+P62937, G12C); test: Ras-Raf (BRAF RBD) disruption / FRET / MOA assay, KRAS G12C; assay type: biochemical; settings: KRAS G12C; Ras-Raf disruption/FRET/MOA assay; read-out: IC50* KRAS G12C FRET data
Procedure, shortened: as §1

[5] = target: NRAS G12C (Homo sapiens (Human), UniProt P01111+P62937, G12C); test: Ras-Raf (BRAF RBD) disruption / FRET / MOA assay, NRAS G12C; assay type: biochemical; settings: read-out: IC50* NRAS G12C FRET data
Procedure, shortened: as §1

[6] = test system: NCI-H358 (K-Ras G12C); test: CellTiter-Glo cell viability assay, NCI-H358; assay type: cell-based, human; settings: Homo sapiens, NCI-H358, 120 h, NCI-H358, 5-day treatment; class symbols; read-out: Additional H358 Cell Viability assay data (K-Ras G12C, IC50)
Procedure, shortened: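 Compounds dispensed directly onto seeded K-Ras mutant cells; plates read on day 5 after ~30 min equilibration to room temperature, by CellTiter-Glo luminescence. Signal normalized as (sample/mean DMSO)×100, then fitted to a four-parameter logistic curve.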

[7] = target: KRAS G13D (Homo sapiens (Human), UniProt P01116+P62937, G13D); test: Ras-Raf (BRAF RBD) disruption / FRET / MOA assay, KRAS G13D; assay type: biochemical; settings: read-out: IC50* KRAS G13D FRET data
Procedure, shortened: as §1

[8] = target: KRAS G12V (Homo sapiens (Human), UniProt P01116+P62937, G12V); test: Ras-Raf (BRAF RBD) disruption / FRET / MOA assay, KRAS G12V; assay type: biochemical; settings: read-out: IC50* KRAS G12V FRET data
Procedure, shortened: as §1

[9] = target: KRAS WT (Homo sapiens (Human), UniProt P01116+P62937); test: Ras-Raf (BRAF RBD) disruption / FRET / MOA assay, KRAS WT; assay type: biochemical; settings: read-out: IC50* KRAS WT FRET data
Procedure, shortened: as §1

[10] = test system: NCI-H358 cells (K-Ras G12C); test: Potency assay: pERK in NCI-H358 cells; assay type: cell-based, human; settings: Homo sapiens, NCI-H358; H358 KRAS G12C; read-out: pERK EC50
Procedure, shortened: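 pERK decrease read by AlphaLISA SureFire p-ERK1/2 or In-Cell Western after 4 h compound exposure at 37 °C, 5% CO2.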

Sequence of KRAS G12V (P01116-2 other isoform, or with tags, fused parts or gaps G12V): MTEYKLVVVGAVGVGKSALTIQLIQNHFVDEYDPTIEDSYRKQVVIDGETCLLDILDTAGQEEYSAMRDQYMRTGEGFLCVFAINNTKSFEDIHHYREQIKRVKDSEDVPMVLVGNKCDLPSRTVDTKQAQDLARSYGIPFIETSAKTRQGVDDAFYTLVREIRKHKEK
Sequence of KRAS G12V (P62937 whole entry): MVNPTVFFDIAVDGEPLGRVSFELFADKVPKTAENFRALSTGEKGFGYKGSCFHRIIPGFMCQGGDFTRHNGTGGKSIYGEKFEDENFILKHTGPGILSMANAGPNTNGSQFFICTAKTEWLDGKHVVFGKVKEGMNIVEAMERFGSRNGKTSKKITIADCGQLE
Sequence of KRAS G12D (P01116-2 other isoform, or with tags, fused parts or gaps G12D): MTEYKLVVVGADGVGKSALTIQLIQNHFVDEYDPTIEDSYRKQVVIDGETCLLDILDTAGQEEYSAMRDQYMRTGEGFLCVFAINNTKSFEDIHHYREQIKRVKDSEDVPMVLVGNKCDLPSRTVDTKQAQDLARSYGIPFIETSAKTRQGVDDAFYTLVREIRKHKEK
Sequence of KRAS G12D (P62937 whole entry): as the sequence (P62937 whole entry) above
Sequence of KRAS G12S (P01116-2 other isoform, or with tags, fused parts or gaps G12S): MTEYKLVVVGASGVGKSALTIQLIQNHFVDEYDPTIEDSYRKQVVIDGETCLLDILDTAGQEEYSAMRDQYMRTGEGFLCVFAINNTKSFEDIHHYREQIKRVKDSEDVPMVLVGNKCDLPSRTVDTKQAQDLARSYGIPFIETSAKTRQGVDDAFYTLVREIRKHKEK
Sequence of KRAS G12S (P62937 whole entry): as the sequence (P62937 whole entry) above
Sequence of KRAS WT (P01116-2 other isoform, or with tags, fused parts or gaps): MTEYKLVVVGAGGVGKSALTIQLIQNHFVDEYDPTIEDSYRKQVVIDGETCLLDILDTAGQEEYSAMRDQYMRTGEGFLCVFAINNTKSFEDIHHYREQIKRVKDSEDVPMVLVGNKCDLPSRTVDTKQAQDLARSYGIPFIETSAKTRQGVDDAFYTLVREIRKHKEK
Sequence of KRAS WT (P62937 whole entry): as the sequence (P62937 whole entry) above
Sequence of K-Ras G13C (P01116-2 other isoform, or with tags, fused parts or gaps G13C): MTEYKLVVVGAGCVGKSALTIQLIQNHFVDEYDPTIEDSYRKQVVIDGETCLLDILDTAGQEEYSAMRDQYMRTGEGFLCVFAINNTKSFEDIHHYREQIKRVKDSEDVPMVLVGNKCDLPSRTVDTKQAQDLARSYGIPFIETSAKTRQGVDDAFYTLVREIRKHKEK
Sequence of K-Ras G13C (P62937 whole entry): as the sequence (P62937 whole entry) above
Sequence of K-Ras G12C (P01116-2 other isoform, or with tags, fused parts or gaps G12C): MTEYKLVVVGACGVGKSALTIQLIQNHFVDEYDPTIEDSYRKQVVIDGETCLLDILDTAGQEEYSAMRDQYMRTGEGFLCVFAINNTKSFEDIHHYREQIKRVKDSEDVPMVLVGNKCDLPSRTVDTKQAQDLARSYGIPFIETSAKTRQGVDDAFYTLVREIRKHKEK
Sequence of K-Ras G12C (P62937 whole entry): as the sequence (P62937 whole entry) above
Sequence of NRAS G12C (P01111 whole entry G12C): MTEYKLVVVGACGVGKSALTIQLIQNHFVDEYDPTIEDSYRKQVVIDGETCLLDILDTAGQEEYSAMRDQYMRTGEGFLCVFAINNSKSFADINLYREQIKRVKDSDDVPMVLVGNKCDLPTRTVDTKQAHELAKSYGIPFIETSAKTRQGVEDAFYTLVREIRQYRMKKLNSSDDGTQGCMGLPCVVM
Sequence of NRAS G12C (P62937 whole entry): as the sequence (P62937 whole entry) above
Sequence of KRAS G13D (P01116-2 other isoform, or with tags, fused parts or gaps G13D): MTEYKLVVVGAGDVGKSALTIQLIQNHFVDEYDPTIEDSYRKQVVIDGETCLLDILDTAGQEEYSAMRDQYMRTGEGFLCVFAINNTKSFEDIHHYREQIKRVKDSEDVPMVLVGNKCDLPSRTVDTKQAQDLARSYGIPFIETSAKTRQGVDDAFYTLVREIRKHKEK
Sequence of KRAS G13D (P62937 whole entry): as the sequence (P62937 whole entry) above

| Structure (SMILES) | IC50 [1] [nM] | IC50 [2] [nM] | IC50 [3] [nM] | IC50 [4] [nM] | IC50 [5] [nM] | IC50 [6] [nM] | IC50 [7] [nM] | IC50 [8] [nM] | IC50 [9] [nM] | EC50 [10] [nM] |
| --- | --- | --- | --- | --- | --- | --- | --- | --- | --- | --- |
| C=CC(=O)N1CC[C@@]2(CCN([C@H](C(=O)N[C@H]3Cc4cccc(c4)-c4ccc5c(c4)c(c(-c4cccnc4[C@H](C)OC)n5CC)CC(C)(C)COC(=O)[C@@H]4CCCN(N4)C3=O)C(C)C)C2=O)C1 (atropisomer, axis not shown) [Example A471] | 1000 to 10000 | 100 to 1000 | > 10000 | 100 to 1000 | 100 to 1000 | 10 to 100 | > 10000 | > 10000 | 1000 to 10000 | < 5000 |
| CCn1c(-c2cccnc2[C@H](C)OC)c2c3cc(ccc31)-c1csc(n1)C[C@H](NC(=O)CCOC1CN(C(=O)C#CC(C)(C)N3CCC3)C1)C(=O)N1CCC[C@H](N1)C(=O)OCC(C)(C)C2 (atropisomer, axis not shown) [Example A477] | > 10000 | 1000 to 10000 | > 10000 | < 10 | 10 to 100 | 10 to 100 | > 10000 | 1000 to 10000 | 1000 to 10000 | < 5000 |
| CCn1c(-c2cccnc2[C@H](C)OC)c2c3cc(ccc31)-c1cccc(c1)C[C@H](NC(=O)CCOC1CN(C(=O)C#CC(C)(C)N3CCC3)C1)C(=O)N1CCC[C@H](N1)C(=O)OCC(C)(C)C2 (atropisomer, axis not shown) [Example A478] | > 10000 | > 10000 | > 10000 | 10 to 100 | 10 to 100 | 10 to 100 | > 10000 | > 10000 | > 10000 | < 5000 |
| CCn1c(-c2cccnc2[C@H](C)OC)c2c3cc(ccc31)-c1csc(n1)C[C@H](NC(=O)[C@H](C(C)C)N(C)C(=O)N1CCN(C(=O)C#CC(C)(C)N(C)C)CC1)C(=O)N1CCC[C@H](N1)C(=O)OCC(C)(C)C2 (atropisomer, axis not shown) [Example A479] | 10 to 100 | 10 to 100 | 100 to 1000 | < 10 | < 10 | < 10 | 100 to 1000 | 10 to 100 | 10 to 100 | < 5000 |
| CCn1c(-c2cccnc2[C@H](C)OC)c2c3cc(ccc31)-c1cccc(c1)C[C@H](NC(=O)[C@H](C(C)C)N(C)C(=O)[C@H]1CCN(C(=O)/C=C/C(F)F)C1)C(=O)N1CCC[C@H](N1)C(=O)OCC(C)(C)C2 (atropisomer, axis not shown) [Example A485] | 1000 to 10000 | 100 to 1000 | > 10000 | 10 to 100 | 10 to 100 | < 10 | 1000 to 10000 | 1000 to 10000 | 1000 to 10000 | < 5000 |
| CC#CC(=O)N1CC[C@@H](C(=O)N(C)[C@H](C(=O)N[C@H]2Cc3cccc(c3)-c3ccc4c(c3)c(c(-c3cccnc3[C@H](C)OC)n4CC)CC(C)(C)COC(=O)[C@@H]3CCCN(N3)C2=O)C(C)C)C1 (atropisomer, axis not shown) [Example A487] | 1000 to 10000 | 100 to 1000 | 1000 to 10000 | 100 to 1000 | 100 to 1000 | 10 to 100 | 1000 to 10000 | 1000 to 10000 | 1000 to 10000 | < 5000 |
| CCn1c(-c2cccnc2[C@H](C)OC)c2c3cc(ccc31)-c1csc(n1)C[C@H](NC(=O)[C@H](C)N(C)C(=O)[C@H]1CCN(C(=O)C#CC(C)(C)N3CCC3)C1)C(=O)N1CCC[C@H](N1)C(=O)OCC(C)(C)C2 (atropisomer, axis not shown) [Example A489] | 1000 to 10000 | 1000 to 10000 | > 10000 | 10 to 100 | 10 to 100 | 10 to 100 | 1000 to 10000 | 1000 to 10000 | 1000 to 10000 | < 5000 |
